Reference: publication PMC8301114, “LC-ESI-LTQ-Orbitrap-MS for Profiling the Distribution of Oleacein and Its Metabolites in Rat Tissues” (Antioxidants, 2021)
Several values for one entry are separate records, joined by “and”; a condition that tells them apart may be missing. Identical values can stand only once. Marks after values point to notes of the source that are not given here.

Experiments:
[1] = Tissue distribution of OLEA and its metabolites after intragastric administration of ROO containing OLEA (LC-ESI-LTQ-Orbitrap-MS); assay type: in vivo, male Sprague–Dawley rats; conditions: for Tissue concentration in heart / Concentration in liver / Concentration in small intestine / Concentration in stomach: mean ± SD; for Detection in heart, spleen, thyroids, lungs, brain, kidney, and skin: 1, 2 and 4.5 h after intragastric OLEA in ROO
Procedure: (§1) In this study, male Sprague–Dawley rats (body weight 227 ± 11 g) were obtained from Envigo RMS Spain SL (Sant Feliu de Codines, Barcelona, Spain). The animals were acclimated for at least 1 week before the initiation of dosing with free access to food and water. They were kept at 22 ± 2 °C in an air-conditioned room on a 12-h light–12-h dark cycle. Before the experiments, the animals were fasted overnight with water available ad libitum. The experiments were performed in compliance with the Animal Experimentation Ethics Committee of the University of Barcelona, Spain and were approved by the Generalitat de Catalunya (trial no. CEEA 124/16 and no. 6435, respectively).
(§2) Before the experiment, the ROO (used as a vehicle to dissolve OLEA for intragastric administration) was analyzed by LC-ESI-LTQ-Orbitrap-MS to make sure it was free of phenolic compounds. The liquid–liquid extraction of phenolic compounds in the ROO was performed following previously described procedures. The chromatographic and mass spectrometer conditions were the same as used for the identification of metabolites (Section 2.6). Once the absence of phenolic compounds was confirmed, the OLEA was added to obtain a final concentration of 0.3 mg/mL. This concentration was chosen based on its concentration in commercial EVOO (around 300 mg/kg), and the daily ingestion recommended by the European Food Safety Authority of at least 5 mg of hydroxytyrosol and its derivatives per 20 g of olive oil.
(§3) The rats were divided into three different groups according to the time of euthanasia: 1 h (n = 4), 2 h (n = 5), and 4.5 h (n = 4). At 0 h, ROO loaded with OLEA standard was supplied to the rats (2.5 mL/300 g body weight) by intragastric administration. Additionally, a control group of rats was maintained under fasting conditions without olive oil ingestion and then similarly euthanized. The gavage volume was established following a good practice guide for substance administration and was lower than the maximum volume of lipid vehicles per kg of rat body weight that prevents elevated plasma corticosterone levels.
(§4) The rats were anesthetized with isoflurane (IsoFlo, veterinaria Esteve, Barcelona, Spain) and euthanized by exsanguinations at the aforementioned time points after the ROO ingestion. Blood samples were collected in EDTA tubes, centrifuged to obtain the plasma (3000× g, 10 min at 4 °C), and stored at −80 °C until analysis. The gastrointestinal tract (including stomach and small intestine), heart, spleen, thyroids, lungs, brain, kidney, and skin were removed from rats at the designated time points. All tissues were washed with saline solution (NaCl 0.9%) and dried with filter paper. In the case of the intestine, the portion removed was 15 cm from 2 cm posterior to the pyloric sphincter, and the intestine was also washed internally by perfusing the isotonic saline solution several times. Rat tissues were accurately weighed and stored at −80 °C until analysis.
(§5) For extraction, all samples were slowly thawed in ice. To avoid compound oxidation, the samples were handled in a room with filtered light and kept on ice throughout. The clean-up of the biological matrix (protein precipitation) was performed using a previously developed method.
A small tissue disruptor (T 10 basic ULTRA-TURRAX®, IKA laboratory technology, Staufen, Germany) was used to homogenize the thawed tissues in a 1:1 ratio (w/v) with water:ACN (1:1 (v/v) with 0.1% ascorbic acid). The samples were then sonicated for 5 min in an ice bath, shaken for 1 min (Vortex-Genie 2) and centrifuged for 10 min (11,000× g, 4 °C). To precipitate the proteins, a volume of 100 µL of the upper layer was blended with cold ACN acidified with formic acid (2%) in a 1:3 (v/v) ratio. After that, the samples were homogenized for 1 min and kept at −20 °C in a freezer for 20 min. Finally, the samples were centrifuged for 10 min (11,000× g, 4 °C) and 100 µL of supernatant was transferred to vials for analysis. […]

[2] = Plasma concentration of OLEA and its metabolites after intragastric administration of ROO containing OLEA (LC-ESI-LTQ-Orbitrap-MS); assay type: in vivo, male Sprague–Dawley rats
Procedure: as §1, §2, §3, §4, §5
Plasma samples were centrifuged for 10 min (11,000× g, 4 °C). Briefly, 100 µL of each sample was deproteinized with ice-cold ACN acidified with formic acid (2%) in a 1:5 (v/v) ratio. The samples were then homogenized for 1 min and kept at −20 °C in a freezer for 20 min. After that, samples were centrifuged (11,000× g, 4 °C, 10 min) and finally, 100 µL of each organic phase was transferred to vials for analysis.
The metabolic profile was determined by analyzing the samples with LC-ESI-LTQ-Orbitrap-MS. […]

[3] = parameters: method as in PMID 21411025; conditions: pH 2.0, after 4 h, partial hydrolysis releasing OH-TY; cited from earlier work
[4] = parameters: method as in PMID 21411025; conditions: in vivo study with rats; cited from earlier work
[5] = parameters: method as in PMID 30469520, PMID 10745093; conditions: moderate lipophilicity; cited from earlier work
[6] = parameters: method as in doi:10.1016/j.jff.2016.01.030; conditions: stomach at 1 h, another study; cited from earlier work
[7] = 1 h after intragastric OLEA 0.3 mg/mL in ROO
[8] = small intestine, 1 h after intragastric OLEA 0.3 mg/mL in ROO
[9] = small intestine, 2 h after intragastric OLEA 0.3 mg/mL in ROO
[10] = small intestine, 4.5 h after intragastric OLEA 0.3 mg/mL in ROO
[11] = stomach, 1 h after intragastric OLEA 0.3 mg/mL in ROO
[12] = stomach, 2 h after intragastric OLEA 0.3 mg/mL in ROO
[13] = stomach, 4.5 h after intragastric OLEA 0.3 mg/mL in ROO
[14] = 1 h after intragastric OLEA 0.3 mg/mL in ROO, mean ± SD
[15] = 2 h after intragastric OLEA 0.3 mg/mL in ROO, mean ± SD
[16] = 4.5 h after intragastric OLEA 0.3 mg/mL in ROO, mean ± SD
[17] = 2 h after intragastric OLEA 0.3 mg/mL in ROO
[18] = 4.5 h after intragastric OLEA 0.3 mg/mL in ROO

Concentration in plasma [2, 15] | Detection in heart, spleen, thyroids, lungs, brain, kidney, and skin [1] | Molecule | Concentration in liver [1, 7] | Concentration in small intestine [1, 8] | Concentration in small intestine [1, 9] | Concentration in small intestine [1, 10] | Concentration in stomach [1, 11] | Concentration in stomach [1, 12] | Concentration in stomach [1, 13] | Concentration in plasma [2, 14] | Concentration in plasma [2, 16] | Concentration in liver [1, 17] | Concentration in liver [1, 18] | logP [5] | other results
0.65 ± 0.07 ^b nmol OLEA equivalents/mL | – | CC=C(C=O)C(CC=O)CC(=O)OCCc1ccc(O)c(O)c1 (stereo in doubt) [OLEA, Oleacein] | 0.28 ± 0.02 nmol OLEA equivalents/g tissue | 2.24 ± 0.14 ^a nmol OLEA equivalents/g tissue | 1.69 ± 0.25 ^b nmol OLEA equivalents/g tissue | 0.51 ± 0.10 ^c nmol OLEA equivalents/g tissue | 8.73 ± 0.29 ^a nmol OLEA equivalents/g tissue | 7.39 ± 0.25 ^b nmol OLEA equivalents/g tissue | 5.77 ± 0.54 ^c nmol OLEA equivalents/g tissue | 1.37 ± 0.20 nmol OLEA equivalents/mL and 1.37 ± 0.20 ^a nmol OLEA equivalents/mL | 0.67 ± 0.10 nmol OLEA equivalents/mL and 0.67 ± 0.10 ^b nmol OLEA equivalents/mL | – | – | – | Tissue concentration in heart ([1]; heart, 1 h after acute intake of OLEA (0.3 mg/mL) in ROO): 0.44 ± 0.07 nmol OLEA equivalents/g tissue and 0.44 ± 0.07 ^a nmol OLEA equivalents/g tissue; Tissue concentration in heart ([1]; heart, 2 h after acute intake of OLEA (0.3 mg/mL) in ROO): 0.45 ± 0.04 nmol OLEA equivalents/g tissue and 0.45 ± 0.04 ^a nmol OLEA equivalents/g tissue; Tissue concentration in heart ([1]; heart, 4.5 h after acute intake of OLEA (0.3 mg/mL) in ROO): 0.44 ± 0.06 nmol OLEA equivalents/g tissue and 0.44 ± 0.06 ^a nmol OLEA equivalents/g tissue; Concentrations detected in the heart ([1]; heart, all time points): ≤ 0.5 nmol OLEA equivalents/g tissue; Decrease of concentration in the small intestine relative to Cmax at 1 h ([1]; small intestine, at 2 h): 25%; Decrease of concentration in the small intestine relative to Cmax at 1 h ([1]; small intestine, at 4.5 h): 77%; Time of Cmax in small intestine ([1]; small intestine, sampling at 1, 2, 4.5 h): 1 h; Decrease of concentration in the stomach relative to Cmax at 1 h ([1]; stomach, at 2 h): 16%; Decrease of concentration in the stomach relative to Cmax at 1 h ([1]; stomach, at 4.5 h): 34%; Time of Cmax in stomach ([1]; stomach, sampling at 1, 2, 4.5 h): 1 h; Time of Cmax in plasma ([2]; sampling at 1, 2, 4.5 h): 1 h; OLEA remaining after incubation at pH 2.0 [3]: about 67%; Degradation in the gastric region [4]: complete degradation
– | not detected | OCCc1ccc(O)c(O)c1 [OH-TY, hydroxytyrosol] | 3.34 ± 0.08 ^b nmol OLEA equivalents/g tissue | 4.71 ± 0.32 ^a nmol OLEA equivalents/g tissue | 3.79 ± 0.29 ^b nmol OLEA equivalents/g tissue | 2.70 ± 0.21 ^c nmol OLEA equivalents/g tissue | 13.37 ± 1.27 ^a nmol OLEA equivalents/g tissue | 7.81 ± 0.69 ^b nmol OLEA equivalents/g tissue | 5.23 ± 0.37 ^c nmol OLEA equivalents/g tissue | – | – | 3.83 ± 0.21 ^a nmol OLEA equivalents/g tissue | 2.51 ± 0.07 ^c nmol OLEA equivalents/g tissue | ~ 0.9 | Share of the total metabolites identified in plasma ([2]; 1 h): 20%; Share of the total metabolites identified in plasma ([2]; 2 h): 22%; Share of the total metabolites identified in plasma ([2]; 4.5 h): 17%; concentration at 1 h ([2]; male, Sprague-Dawley, rat, oral, 2.5 mg/kg, 1 h after intragastric OLEA 0.3 mg/mL in ROO, mean ± SD): 2110 ± 100 nM; concentration at 2 h ([2]; male, Sprague-Dawley, rat, oral, 2.5 mg/kg, 2 h after intragastric OLEA 0.3 mg/mL in ROO, mean ± SD): 3020 ± 160 nM; concentration at 4.5 h ([2]; male, Sprague-Dawley, rat, oral, 2.5 mg/kg, 4.5 h after intragastric OLEA 0.3 mg/mL in ROO, mean ± SD): 1620 ± 140 nM; OH-TY concentration in stomach [6]: 8.75 ± 1.95 nmols/g digesta
0.76 ± 0.04 ^a nmol OLEA equivalents/mL | not detected | elenolic acid [EA] | 1.07 ± 0.06 ^b nmol OLEA equivalents/g tissue | 1.81 ± 0.05 ^a nmol OLEA equivalents/g tissue | 0.67 ± 0.08 ^b nmol OLEA equivalents/g tissue | 0.16 ± 0.02 ^c nmol OLEA equivalents/g tissue | 7.53 ± 0.56 ^a nmol OLEA equivalents/g tissue | 4.07 ± 0.36 ^b nmol OLEA equivalents/g tissue | 1.81 ± 0.13 ^c nmol OLEA equivalents/g tissue | 0.43 ± 0.03 ^b nmol OLEA equivalents/mL | 0.16 ± 0.02 ^c nmol OLEA equivalents/mL | 1.34 ± 0.08 ^a nmol OLEA equivalents/g tissue | 0.76 ± 0.02 ^c nmol OLEA equivalents/g tissue | ~ 0.9 | –
